Source: patent US12168012B2, “NLRP3 inflammasome inhibitors” (Novartis AG, priority 2018, dated 2024)
Counter-ions that a name gives are not always drawn.

Assays:
[1] = tested on: NLRP3 inflammasome; experiment: IL-1β secretion assay; assay type: cell-based; conditions: Homo sapiens, THP-1, 3 h, PMA-differentiated THP-1 cells, 15 μM nigericin, HTRF
Summary of the method: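 PMA-differentiated THP-1 cells stimulated with nigericin to trigger NLRP3-dependent IL-1β secretion, measured by HTRF after 3 h. Viability/pyroptosis monitored with PrestoBlue. IC50 from logistic fit of % inhibition vs concentration with Hill coefficient.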

[2] = tested on: NF-kB-dependent TNF-α secretion; experiment: TNF-α secretion assay (counterscreen); assay type: cell-based; conditions: Homo sapiens; THP-1 cells, Pam3CSK4-stimulated, 3 hours, HTRF
Experimental: Monocytic THP-1 cells were maintained according to providers' instructions in RPMI media as described above. Undifferentiated cells were plated at 50,000 cells per well in a 384-well flat-bottom cell culture plates (Greiner, #781986), and allowed to rest overnight. Experimental compounds were prepared and added as described above. TNF-α secretion was triggered by the addition of either 1 μg/mL LPS (Sigma, #L4391) or 100 ng/mL Pam3CSK4 (Invivogen, #tlrl-pms) depending on the experiment, and cells were incubated for 3 hours. 10 μL supernatant was removed, and TNF-α levels were monitored using an HTRF assay (CisBio, #62TNFPEC) according to manufacturers' instructions. Viability was monitored as described above.
IC50 values were calculated from the plot of percentage of inhibition versus the inhibitor concentration by a logistics fit according to: y=A2+(A1−A2)/(1+(x/IC50)^p) where y is the %-inhibition at the inhibitor concentration, x. A1 is the lowest inhibition value, i.e. 0%, and A2 the maximum inhibition value, i.e. 100%. The exponent, p, is the Hill coefficient. The curve fitting was conducted with an internally developed software suite. […]

Compound	IC50 [1]	IC50 [2]
CC(C)c1nn(CC(=O)NCC(C)(C)CO)c(=O)c2cc3sc(Cl)cc3n12 [Ex 20, 2-(2-Chloro-5-isopropyl-8-oxothieno[2′,3′:4,5]pyrrolo[1,2-d][1,2,4]triazin-7(8H)-yl)-N-(3-hydroxy-2,2-dimethylpropyl)acetamide]	59.8 nM	> 100000 nM
CC(C)c1nn(CC(=O)N[C@@H]2CCC[C@@](C)(O)C2)c(=O)c2cc3scnc3n12 [Ex 90, N-((1R,3R)-3-Hydroxy-3-methylcyclohexyl)-2-(5-isopropyl-8-oxothiazolo[5′,4′:4,5]pyrrolo[1,2-d][1,2,4]triazin-7(8H)-yl)acetamide]	60.8 nM	> 100000 nM
CC(C)c1nn(CC(=O)N[C@@H]2CCCN(C3CC3)C2)c(=O)c2cc3sc(Cl)cc3n12 [Ex 124, (R)-2-(2-Chloro-5-isopropyl-8-oxothieno[2′,3′:4,5]pyrrolo[1,2-d][1,2,4]triazin-7(8H)-yl)-N-(1-cyclopropylpiperidin-3-yl)acetamide]	0.9 nM	> 100000 nM
CC(C)c1nn(CC(=O)N[C@@H]2CCCN(CCF)C2)c(=O)c2cc3sc(Cl)cc3n12 [Ex 28, (R)-2-(2-Chloro-5-isopropyl-8-oxothieno[2′,3′:4,5]pyrrolo[1,2-d][1,2,4]triazin-7(8H)-yl)-N-(1-(2-fluoroethyl)piperidin-3-yl)acetamide]	13.3 nM	> 100000 nM
CN1CCC[C@@H](NC(=O)Cn2nc(C3CC3)n3c(cc4sc(Cl)cc43)c2=O)C1 [Ex 37, (R)-2-(2-Chloro-5-cyclopropyl-8-oxothieno[2′,3′:4,5]pyrrolo[1,2-d][1,2,4]triazin-7(8H)-yl)-N-(1-methylpiperidin-3-yl)acetamide]	101 nM	> 100000 nM
CC(C)c1nn(CC(=O)N[C@@H]2CCCN(CCO)C2)c(=O)c2cc3sc(Cl)cc3n12 [Ex 133, (R)-2-(2-Chloro-5-isopropyl-8-oxothieno[2′,3′:4,5]pyrrolo[1,2-d][1,2,4]triazin-7(8H)-yl)-N-(1-(2-hydroxyethyl)piperidin-3-yl)acetamide]	20.5 nM	> 100000 nM
CC(C)c1nn(CC(=O)N[C@@H]2CCOC2)c(=O)c2cc3sc(Cl)cc3n12 [Ex 100, (R)-2-(2-Chloro-5-isopropyl-8-oxothieno[2′,3′:4,5]pyrrolo[1,2-d][1,2,4]triazin-7(8H)-yl)-N-(tetrahydrofuran-3-yl)acetamide]	182 nM	> 100000 nM
CC(C)c1nn(CC(=O)Nc2ccncn2)c(=O)c2cc3sc(F)cc3n12 [Ex 6, 2-(2-Fluoro-5-isopropyl-8-oxothieno[2′,3′:4,5]pyrrolo[1,2-d][1,2,4]triazin-7(8H)-yl)-N-(pyrimidin-4-yl)acetamide]	6.5 nM	> 100000 nM
CC(C)c1nn(CC(=O)N[C@H]2CCC[C@@H](C(=O)O)C2)c(=O)c2cc3sc(Cl)cc3n12 [Ex 55, (1R,3S)-3-(2-(2-Chloro-5-isopropyl-8-oxothieno[2′,3′:4,5]pyrrolo[1,2-d][1,2,4]triazin-7(8H)-yl)acetamido)cyclohexane-1-carboxylic acid]	843 nM	> 100000 nM
CC(C)(O)c1nn(CC(=O)NC2CC3(COC3)C2)c(=O)c2cc3sc(Cl)cc3n12 [Ex 26, 2-(2-Chloro-5-(2-hydroxypropan-2-yl)-8-oxothieno[2′,3′:4,5]pyrrolo[1,2-d][1,2,4]triazin-7(8H)-yl)-N-(2-oxaspiro[3.3]heptan-6-yl)acetamide]	46.4 nM	> 100000 nM
CC(C)c1nn(CC(=O)N[C@@H]2CCCN(C[C@@H](C)O)C2)c(=O)c2cc3sc(Cl)cc3n12 [Ex 128, 2-(2-Chloro-5-isopropyl-8-oxothieno[2′,3′:4,5]pyrrolo[1,2-d][1,2,4]triazin-7(8H)-yl)-N—((R)-1-((R)-2-hydroxypropyl)piperidin-3-yl)acetamide]	4.5 nM	> 100000 nM
CC(C)c1nn(CC(=O)N[C@@H]2CCCNC2)c(=O)c2cc3scnc3n12 [Ex 88, (R)-2-(5-Isopropyl-8-oxothiazolo[5′,4′:4,5]pyrrolo[1,2-d][1,2,4]triazin-7(8H)-yl)-N-(piperidin-3-yl)acetamide]	27.5 nM	> 100000 nM
O=C(Cn1nc(C2CC2)n2c(cc3scnc32)c1=O)Nc1cccnc1 [Ex 4, 2-(5-Cyclopropyl-8-oxothiazolo[5′,4′:4,5]pyrrolo[1,2-d][1,2,4]triazin-7(8H)-yl)-N-(pyridin-3-yl)acetamide]	220 nM	> 100000 nM
CC(C)(O)c1nn(CC(=O)N[C@@H]2CCC[C@@H](O)C2)c(=O)c2cc3sc(Cl)cc3n12 [Ex 64, 2-(2-Chloro-5-(2-hydroxypropan-2-yl)-8-oxothieno[2′,3′:4,5]pyrrolo[1,2-d][1,2,4]triazin-7(8H)-yl)-N-((1R,3R)-3-hydroxycyclohexyl)acetamide]	3.4 nM	> 100000 nM
CC(C)c1nn(CC(=O)NC[C@@H](C)O)c(=O)c2cc3sc(Cl)cc3n12 [Ex 70, (R)-2-(2-Chloro-5-isopropyl-8-oxothieno[2′,3′:4,5]pyrrolo[1,2-d][1,2,4]triazin-7(8H)-yl)-N-(2-hydroxypropyl)acetamide]	34.9 nM	> 100000 nM
CC1(C)CC(NC(=O)Cn2nc(C(C)(C)O)n3c(cc4sc(Cl)cc43)c2=O)C1 [Ex 25, 2-(2-Chloro-5-(2-hydroxypropan-2-yl)-8-oxothieno[2′,3′:4,5]pyrrolo[1,2-d][1,2,4]triazin-7(8H)-yl)-N-(3,3-dimethylcyclobutyl)acetamide]	78.5 nM	> 100000 nM
CC(C)c1nn(CC(=O)N[C@@H]2CCNC2)c(=O)c2cc3sc(Cl)cc3n12 [Ex 103, (R)-2-(2-Chloro-5-isopropyl-8-oxothieno[2′,3′:4,5]pyrrolo[1,2-d][1,2,4]triazin-7(8H)-yl)-N-(pyrrolidin-3-yl)acetamide]	190 nM	> 100000 nM
CC(O)c1nn(CC(=O)N[C@@H]2CCCN(C)C2)c(=O)c2cc3sc(Cl)cc3n12 (stereo partly drawn) [Ex 44, 2-(2-Chloro-5-(1-hydroxyethyl)-8-oxothieno[2′,3′:4,5]pyrrolo[1,2-d][1,2,4]triazin-7(8H)-yl)-N-((R)-1-methylpiperidin-3-yl)acetamide]	112 nM	> 100000 nM
CC(O)c1nn(CC(=O)N[C@@H]2CCC[C@@](C)(O)C2)c(=O)c2cc3sc(Cl)cc3n12 (stereo partly drawn) [Ex 45, 2-(2-Chloro-5-(1-hydroxyethyl)-8-oxothieno[2′,3′:4,5]pyrrolo[1,2-d][1,2,4]triazin-7(8H)-yl)-N-((1R,3R)-3-hydroxy-3-methylcyclohexyl)acetamide]	244 nM	> 100000 nM
CC(C)c1nn(CC(=O)N[C@@H]2CCCN(C[C@H](C)O)C2)c(=O)c2cc3sc(Cl)cc3n12 [Ex 129, 2-(2-Chloro-5-isopropyl-8-oxothieno[2′,3′:4,5]pyrrolo[1,2-d][1,2,4]triazin-7(8H)-yl)-N-((R)-1-((S)-2-hydroxypropyl)piperidin-3-yl)acetamide]	3.1 nM	> 100000 nM
O=C(Cn1nc(C2CC2)n2c(cc3sc(Cl)cc32)c1=O)N[C@@H]1CCCNC1 [Ex 36, (R)-2-(2-Chloro-5-cyclopropyl-8-oxothieno[2′,3′:4,5]pyrrolo[1,2-d][1,2,4]triazin-7(8H)-yl)-N-(piperidin-3-yl)acetamide hydrochloride]	109 nM	> 100000 nM
CC(C)c1nn(CC(=O)N[C@@H]2CCC(=O)NC2)c(=O)c2cc3scnc3n12 [Ex 46, (R)-2-(5-Isopropyl-8-oxothiazolo[5′,4′:4,5]pyrrolo[1,2-d][1,2,4]triazin-7(8H)-yl)-N-(6-oxopiperidin-3-yl)acetamide]	50.8 nM	> 100000 nM
CC(C)(O)c1nn(CC(=O)N[C@@H]2CCC[C@@](C)(O)C2)c(=O)c2cc3sc(Cl)cc3n12 [Ex 83, 2-(2-Chloro-5-(2-hydroxypropan-2-yl)-8-oxothieno[2′,3′:4,5]pyrrolo[1,2-d][1,2,4]triazin-7(8H)-yl)-N-((1R,3R)-3-hydroxy-3-methylcyclohexyl)acetamide]	16.2 nM	> 100000 nM
CC(C)(O)c1nn(CC(=O)NC2CC2)c(=O)c2cc3sc(Cl)cc3n12 [Ex 62, 2-(2-Chloro-5-(2-hydroxypropan-2-yl)-8-oxothieno[2′,3′:4,5]pyrrolo[1,2-d][1,2,4]triazin-7(8H)-yl)-N-cyclopropylacetamide]	76.1 nM	> 100000 nM
CC(C)c1nn(CC(=O)N[C@@H]2CCC[C@@H](O)C2)c(=O)c2cc3sc(Cl)cc3n12 [Ex 21, 2-(2-Chloro-5-isopropyl-8-oxothieno[2′,3′:4,5]pyrrolo[1,2-d][1,2,4]triazin-7(8H)-yl)-N-((1R,3R)-3-hydroxycyclohexyl)acetamide]	32.5 nM	> 100000 nM
CC(C)c1nn(CC(=O)N[C@@H]2C[C@@H]2F)c(=O)c2cc3sc(Cl)cc3n12 [Ex 52, 2-(2-Chloro-5-isopropyl-8-oxothieno[2′,3′:4,5]pyrrolo[1,2-d][1,2,4]triazin-7(8H)-yl)-N-((1R,2S)-2-fluorocyclopropyl)acetamide]	660 nM	> 100000 nM
